# Experimental data from patent publication US20250248431A1, “AGENT FOR ENHANCING SALTINESS OR SUPRESSING OFF-FLAVOR” (AJINOMOTO CO., INC., priority 2022, published 2025).
# How the values were obtained:
# [1] = Test 9: sensory evaluation of saltiness intensity, meatballs; type: in vivo; conditions: effect if average score 1 point or more
# From the text: (§1) Meatballs were produced as evaluation samples by the following steps (1) to (6).
# (§2) (1) Commercially available ground pork, sodium chloride (manufactured by Naikai Salt Industries Co., Ltd.), and potassium chloride (manufactured by Uji Pharmaceutical Co., Ltd.) were mixed in the ratios shown in Table 25 below, and the mixture was stirred in a stand mixer (“Kitchen Aid”, model: KSM5WH, manufactured by FMI Corporation) until the entire mixture was uniformly mixed. The speed scale of the stand mixer was set to “1”. (2) To the mixture obtained in the above-mentioned (1) were added finely chopped onion, water, salad oil (manufactured by J-OIL MILLS, INC.), potato starch (manufactured by Minami-Tokachi Rationalized Potato Starch Factory), and β-caryophyllene solution or β-caryophyllene oxide solution in the ratios shown in Table 25 below, and the mixture was stirred in the above-mentioned stand mixer (speed scale setting: 1) until the entire mixture was uniformly mixed. The β-caryophyllene solution was prepared by dissolving β-caryophyllene (manufactured by Sigma-Aldrich) in propylene glycol to a concentration of 1000 ppm by weight, and the β-caryophyllene oxide solution was prepared by dissolving β-caryophyllene oxide (manufactured by Penta Manufacturing Company) in propylene glycol to a concentration of 1000 ppm by weight. […]
# [2] = Test 9: sensory evaluation of off-taste level, meatballs; type: in vivo; conditions: effect if average score 1 point or more
# From the text: as §1, §2
smiles,measurement,setting,value
C=C1CC[C@H]2O[C@]2(C)CC[C@@H]2[C@@H]1CC2(C)C [β-caryophyllene oxide],saltiness enhancing effect,[1],can enhance the saltiness
same,off-taste suppression effect,[2],suppress the off-taste of off-taste substances
